Laboratory results published in patent publication US10834926B2, “Insecticide properties of an extract of Sextonia rubra, and the constituents thereof” (Centre National de la Recherche Scientifique, priority 2014, dated 2020).

Tested on: larvae of Aedes aegypti mosquitoes of the PAEA laboratory strain
Assay: Larvicidal in-cup trial on larvae, protocol adapted from WHO protocols
Format: in vivo
Conditions: for minimum concentration corresponding to an effective amount (100% mortality): 100% mortality of larvae at 24 h; for LD50 (SE) At 24 h / LD90 (SE) At 24 h / LD50 (SE) At 48 h / LD90 (SE) At 48 h: larval mortality, stage 3-4 larvae, PAEA strain; for LD50 (SE) At 24 h / LD90 (SE) At 24 h: 24 h after exposure; for LD50 (SE) At 48 h / LD90 (SE) At 48 h: 48 h after exposure
Excerpt: For the purposes of the present invention, the expression “agent that is insecticidal/larvicidal with respect to a mosquito strain” is intended to mean a compound which results in the death of the mosquito larvae placed in the presence of this compound, for example in the context of an in-cup trial carried out according to the protocol recommended by the WHO (Guidelines for Laboratory and Field Testing of Mosquito Larvicides, WHO/CDS/WHOPES/GCDPP/2005.13, 2005), and for which, according to the WHO criteria for validating the tests, the mortality in the control batches is less than 20%.
The biological trials were carried out on larvae of Aedes aegypti mosquitoes of the PAEA laboratory strain sensitive to all insecticides. The protocol described hereinafter was adapted according to the WHO protocols.
This strain originating from French Polynesia has been maintained for about ten years at the insectarium of the Institut Pasteur of Guyana, in Cayenne. The mosquitoes were bred under natural conditions: temperature of 28° C.±2° C., humidity of 80%±20%, and daytime duration 12:12 h±20 min during the year. The Aedes aegypti eggs were kept dry on strips of blotting paper at the insectarium temperature. Hatching was carried out by placing these strips in water under a vacuum bell jar for at least 20 min. The larvae thus obtained were fed with yeast tablets. The larvae at growth stage 3-4 were then used for the extract and constituent activity tests. 100 larvae were transferred into plastic cups containing 99 ml of distilled water. Four cups per concentration (4×25 larvae) and at least 5 concentrations of each extract or constituent diluted in ethanol (crude extract of Sextonia rubra: 1, 2, 3, 4, 5, 7, 10, 25, 35, 50, 75, 100 μg/ml, rubrenolide: 0.1, 0.3, 0.5, 0.7, 1, 1.5, 2 μg/ml, rubrynolide: 0.1, 0.3, 0.5, 0.7, 1, 1.5, 4, 6, 8 μg/ml) were used to measure mortalities ranging from 0 to 100%. Each concentration of extract or of constituent (1 ml) was added to the cup. Controls were also carried out by adding 1 ml of ethanol to the cup. The mortality was evaluated at 24 h and 48 h after exposure of the larvae to the test product (crude extract, isolated constituent, ethanol).

## C=CCCCCCCCC[C@@H]1C[C@H](C[C@@H](O)CO)C(=O)O1 [Rubrenolide, rubrenolide]
  minimum concentration corresponding to an effective amount (100% mortality): 2 µg/mL
  LD50 (SE) At 24 h: 0.605 (0.023) μg/ml
  LD90 (SE) At 24 h: 2.110 (0.041) μg/ml
  LD50 (SE) At 48 h: 0.300 (0.024) μg/ml
  LD90 (SE) At 48 h: 0.788 (0.027) μg/ml
Listed as rubrenolide
  LD50 (SE) At 24 h: 0.6 µg/mL

## C#CCCCCCCCC[C@@H]1C[C@H](C[C@@H](O)CO)C(=O)O1 [Rubrynolide, rubrynolide]
  minimum concentration corresponding to an effective amount (100% mortality): 17 µg/mL
  LD50 (SE) At 24 h: 3.840 (0.018) μg/ml
  LD90 (SE) At 24 h: 8.909 (0.031) μg/ml
  LD50 (SE) At 48 h: 2.105 (0.023) μg/ml
  LD90 (SE) At 48 h: 8.200 (0.043) μg/ml
Listed as rubrynolide
  LD50 (SE) At 24 h: 3.8 µg/mL

## spinosad [reference compound]
  LD50 (SE) At 24 h: 0.387 (0.025) μg/ml
  LD90 (SE) At 24 h: 1.118 (0.065) μg/ml
  LD50 (SE) At 48 h: 0.193 (0.020) μg/ml
  LD90 (SE) At 48 h: 0.444 (0.028) μg/ml
Listed as spinosad
  LD50 (SE) At 24 h: 0.4 µg/mL

## COP(=O)(OC)OC=C(Cl)Cl [Dichlorvos, dichlorvos, reference compound]
  LD50 (SE) At 24 h: 0.039 (0.012) μg/ml
  LD90 (SE) At 24 h: 0.064 (0.026) μg/ml
  LD50 (SE) At 48 h: 0.029 (0.012) μg/ml
  LD90 (SE) At 48 h: 0.049 (0.020) μg/ml
